Experimental data published in ChEMBL document CHEMBL3120100, “Identification and biological evaluation of flavonoids from the fruits of Prunus mume” (2014).

Experiments:
[1] = target: T1, Tartrate-resistant acid phosphatase type 5 (Mus musculus) (UniProt Q05117); test: Inhibition of TRAP activity in RANKL-induced Balb/c mouse RAW264.7 cells at 10 uM after 1 hr by ELISA relative to control; type: cell-based
T1 sequence (whole entry): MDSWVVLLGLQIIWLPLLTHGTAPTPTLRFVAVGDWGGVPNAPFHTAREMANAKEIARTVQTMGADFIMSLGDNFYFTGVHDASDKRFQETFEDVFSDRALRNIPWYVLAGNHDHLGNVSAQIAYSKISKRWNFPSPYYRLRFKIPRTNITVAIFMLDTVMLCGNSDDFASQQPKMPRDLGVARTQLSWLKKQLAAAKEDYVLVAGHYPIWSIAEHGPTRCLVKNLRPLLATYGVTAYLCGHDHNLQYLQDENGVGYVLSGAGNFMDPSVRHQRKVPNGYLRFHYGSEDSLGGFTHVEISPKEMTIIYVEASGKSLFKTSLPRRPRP

[2] = target: T1, Tartrate-resistant acid phosphatase type 5 (Mus musculus); test: Inhibition of TRAP activity in RANKL-induced Balb/c mouse RAW264.7 cells at 1 uM after 1 hr by ELISA relative to control; type: cell-based
[3] = Antiosteoporotic activity in alpha-MEM-induced C57BL/6 mouse MC3T3-E1 cells assessed as increase in mineralization by measuring calcium deposition at 5 uM by Alizarin Red staining assay relative to control; type: functional
[4] = Antiosteoporotic activity in C57BL/6 mouse MC3T3-E1 cells assessed as increase in mineralization by measuring calcium deposition at 5 uM by Alizarin Red staining assay relative to control; type: functional
[5] = Antiosteoporotic activity in alpha-MEM-induced C57BL/6 mouse MC3T3-E1 cells assessed as increase in collagen synthesis at 5 uM by Sirius Red-based colorimetric assay relative to control; type: functional
[6] = Antiosteoporotic activity in C57BL/6 mouse MC3T3-E1 cells assessed as increase in collagen synthesis at 5 uM by Sirius Red-based colorimetric assay relative to control; type: functional
[7] = Antioxidant activity assessed as reduction of Cu2+ to Cu+ at 10 uM; type: functional
[8] = Antioxidant activity assessed as trolox equivalent of APPH-induced peroxyl radical scavenging activity measured every 2 mins by ORAC fluorescence assay; type: functional
[9] = Antioxidant activity assessed as trolox equivalent of APPH-induced peroxyl radical scavenging activity at 1 uM measured every 2 mins by ORAC fluorescence assay; type: functional
[10] = target: T1, Tartrate-resistant acid phosphatase type 5 (Mus musculus); test: Inhibition of TRAP activity in Balb/c mouse RAW264.7 cells at 10 uM after 1 hr by ELISA relative to control; type: cell-based

SMILES: Oc1ccc([C@@]23Oc4cc(O)cc(O)c4[C@@H](c4c(O)cc(O)c5c4O[C@H](c4ccc(O)c(O)c4)[C@H](O)C5)[C@@H]2O3)cc1
- TRAP activity (% of control) [1]: 85.6%
- inhibition [2]: 78.5%
- Activity [3]: 89.84%
- Activity [4]: 151.36%
- Activity [5]: 77.16%
- Activity [6]: 179.68%
- Activity [7]: 29.9 µM
- Activity [8]: Dose-dependent effect
- Activity [9]: 5.42 µM

SMILES: Oc1cc(O)c2c(c1)O[C@@]1(c3ccc(O)c(O)c3)O[C@H]1[C@@H]2c1c(O)cc(O)c2c1O[C@H](c1ccc(O)c(O)c1)[C@H](O)C2
- TRAP activity (% of control) [1]: 107%
- inhibition [2]: 98%
- Activity [3]: 109.85%
- Activity [4]: 185.08%
- Activity [5]: 103.38%
- Activity [6]: 240.74%
- Activity [7]: 34.7 µM
- Activity [8]: Dose-dependent effect
- Activity [9]: 5.22 µM

SMILES: C[C@@H]1O[C@@H](O[C@H]2[C@H](Oc3c(-c4ccc(O)c(O)c4)oc4cc(O)cc(O)c4c3=O)O[C@H](CO)[C@H](O)[C@@H]2O)[C@H](O)[C@H](O)[C@H]1O
- TRAP activity (% of control) [1]: 128%
- inhibition [2]: 101%
- Activity [3]: 104.72%
- Activity [4]: 176.44%
- Activity [5]: 96.59%
- Activity [6]: 224.92%
- Activity [7]: 19.4 µM
- Activity [8]: Dose-dependent effect
- Activity [9]: 3.36 µM

SMILES: Oc1cc(O)c2c(c1)O[C@H](c1ccc(O)c(O)c1)[C@H](O)C2 [(-)-EPICATECHIN]
- TRAP activity (% of control) [1]: 84%
- inhibition [2]: 78.3%
- Activity [3]: 111.92%
- Activity [4]: 188.57%
- Activity [5]: 105.69%
- Activity [6]: 246.13%
- Activity [7]: 25.7 µM
- Activity [8]: Dose-dependent effect
- Activity [9]: 4.49 µM

SMILES: O=c1c(O[C@@H]2O[C@H](CO)[C@@H](O)[C@H](O)[C@H]2O)c(-c2ccc(O)c(O)c2)oc2cc(O)cc(O)c12 [ISOQUERCETIN]
- TRAP activity (% of control) [1]: 82.9%
- inhibition [2]: 76.6%
- Activity [3]: 107.58%
- Activity [4]: 181.25%
- Activity [5]: 112.49%
- Activity [6]: 261.95%
- Activity [7]: 21.3 µM
- Activity [8]: Dose-dependent effect
- Activity [9]: 4.4 µM

SMILES: C[C@@H]1O[C@@H](OC[C@H]2O[C@@H](Oc3c(-c4ccc(O)c(O)c4)oc4cc(O)cc(O)c4c3=O)[C@H](O)[C@@H](O)[C@@H]2O)[C@H](O)[C@H](O)[C@H]1O [RUTIN]
- TRAP activity (% of control) [1]: 71.7%
- inhibition [10]: 146%
- inhibition [2]: 78%
- Activity [3]: 103.24%
- Activity [4]: 173.94%
- Activity [5]: 100.09%
- Activity [6]: 233.08%
- Activity [7]: 30.1 µM
- Activity [8]: Dose-dependent effect
- Activity [9]: 3.78 µM
